The values below come from patent US20260035365A1, “1H-PYRROLO[3,2-B]PYRIDINE DERIVATIVES AS IRREVERSIBLE INHIBITORS OF MUTANT EGFR FOR THE TREATMENT OF CANCER” (Bayer Aktiengesellschaft, priority 2022, published 2026).

For experiment [1], the system named is BA/F3 (insSVD) cells. Put plainly: Ba/F3 cell survival assay (Cell Titer-Glo), EGFR-insSVD. It counts as cell-based. The settings on record: Mus musculus, BaF3, 48 h, without IL-3, with EGF. The procedure, abridged: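 Ba/F3 cells stably expressing EGFR-insSVD or insSVD T790M via retrovirus (puromycin-selected), switched from IL-3 to 10 ng/mL EGF for 2 days, then plated at 4000 cells/well. Compound added by 100 nL pin transfer; 48 h at 37° C. Viability by CellTiter-Glo luminescence.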

Experiment [2] deals with BA/F3 (EGFR D770_N771 insSVD T790M) cells. The experiment is described as follows: Ba/F3 cell survival assay (Cell Titer-Glo), EGFR-insSVD T790M. It counts as cell-based. The settings on record: Ba/F3 EGFR-D770-N771ins_SVD; 48 h, without IL-3, with EGF. How it is done: 293T cells from ATCC were transfected with pBABEpuro expression constructs for WT EGFR or EGFR-insSVD, or EGFR-insSVD T790M, and pCL-Eco packaging vector using Fugene-6 transfection reagent from Promega. Plates were incubated at 37° C. for 48 h. Retrovirus was harvested by filtering the media supernatant through a 0.45 μm filter.
Ba/F3 cells purchased from DSMZ were grown in RPMI+10% FBS+10 ng/mL IL-3 and infected with filtered retroviral supernatant at a 1:2 dilution. Polybrene was added to a concentration of 8 μg/mL, plates were spun for 90 min, and incubated for 16 h at 37° C. 2 μg/mL puromycin was added to the infected cells 24 h after infection and cells were continually grown in the presence of puromycin and 10 ng/mL IL-3. Following stably expressing Ba/F3 cell lines were generated: Ba/F3-EGFR-WT, Ba/F3-EGFR-insSVD, Ba/F3-EGFR-insSVD T790M, (Ba/F3-vector-control).
For cell survival assays, Ba/F3 cells were grown to a density of 1-2 million cells per mL, spun down and resuspended in media without IL-3, and replated at a concentration of 200,000-500,000 cells per mL. The cells ectopically expressing WT EGFR, EGFR-insSVD, or EGFR-insSVD T790M were plated with 10 ng/mL Millipore Culture grade EGF. The cells ectopically expressing pBABEpuro empty vector were plated with 10 ng/mL IL-3.
2 days later, cells were plated in 50 μL in a 384 well plate at a concentration of 4000 cells per well for cells assayed in the absence of IL-3 and 2000 cells per well for cells assayed in the presence of IL-3. 100 nL of compound was added to each well using a 100 nL pin head, and plates were incubated at 37° C. for 48 h.
Cell viability was measured by adding 20 μL of Cell Titer-Glo Luminescent Cell Viability Reagent diluted 1:3 in PBS. Plates were sealed with Perkin Elmer Top-Seal, inverted several times to mix, and immediately centrifuged at 1000 rpm for 2 min. Plates were incubated in low light conditions for 8-10 min and luminescence was measured.

Experiment [3] deals with mutEGFR (D770_N771insSVD) (Homo sapiens, UniProt P00533, INS767SVD). The experiment is described as follows: Exon20-mutant-EGFR (D770_N771insSVD) TR-FRET kinase assay. It is filed as biochemical. The settings on record: 2 mM ATP, 15 min preincubation. The method in brief:
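GST-fused human EGFR fragment R669-A1210 carrying the SVD insertion, Sf9-expressed, typically 15 pg/μl, was preincubated with compound for 15 min at 22° C in pH 7.0 Hepes/MgCl2 buffer. Phosphorylation was read by HTRF (665/620 nm ratio), normalised to no-inhibitor and no-enzyme controls.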

The target in experiment [4] is mutEGFR (D770_N771insNPG, T790). Put plainly: mutEGFR (D770_N771insNPG, T790) kinase assay. It counts as biochemical, human.
mutEGFR (D770_N771insNPG, T790), sequence (P00533 with tags, fused parts or gaps INS770NPG limits assumed): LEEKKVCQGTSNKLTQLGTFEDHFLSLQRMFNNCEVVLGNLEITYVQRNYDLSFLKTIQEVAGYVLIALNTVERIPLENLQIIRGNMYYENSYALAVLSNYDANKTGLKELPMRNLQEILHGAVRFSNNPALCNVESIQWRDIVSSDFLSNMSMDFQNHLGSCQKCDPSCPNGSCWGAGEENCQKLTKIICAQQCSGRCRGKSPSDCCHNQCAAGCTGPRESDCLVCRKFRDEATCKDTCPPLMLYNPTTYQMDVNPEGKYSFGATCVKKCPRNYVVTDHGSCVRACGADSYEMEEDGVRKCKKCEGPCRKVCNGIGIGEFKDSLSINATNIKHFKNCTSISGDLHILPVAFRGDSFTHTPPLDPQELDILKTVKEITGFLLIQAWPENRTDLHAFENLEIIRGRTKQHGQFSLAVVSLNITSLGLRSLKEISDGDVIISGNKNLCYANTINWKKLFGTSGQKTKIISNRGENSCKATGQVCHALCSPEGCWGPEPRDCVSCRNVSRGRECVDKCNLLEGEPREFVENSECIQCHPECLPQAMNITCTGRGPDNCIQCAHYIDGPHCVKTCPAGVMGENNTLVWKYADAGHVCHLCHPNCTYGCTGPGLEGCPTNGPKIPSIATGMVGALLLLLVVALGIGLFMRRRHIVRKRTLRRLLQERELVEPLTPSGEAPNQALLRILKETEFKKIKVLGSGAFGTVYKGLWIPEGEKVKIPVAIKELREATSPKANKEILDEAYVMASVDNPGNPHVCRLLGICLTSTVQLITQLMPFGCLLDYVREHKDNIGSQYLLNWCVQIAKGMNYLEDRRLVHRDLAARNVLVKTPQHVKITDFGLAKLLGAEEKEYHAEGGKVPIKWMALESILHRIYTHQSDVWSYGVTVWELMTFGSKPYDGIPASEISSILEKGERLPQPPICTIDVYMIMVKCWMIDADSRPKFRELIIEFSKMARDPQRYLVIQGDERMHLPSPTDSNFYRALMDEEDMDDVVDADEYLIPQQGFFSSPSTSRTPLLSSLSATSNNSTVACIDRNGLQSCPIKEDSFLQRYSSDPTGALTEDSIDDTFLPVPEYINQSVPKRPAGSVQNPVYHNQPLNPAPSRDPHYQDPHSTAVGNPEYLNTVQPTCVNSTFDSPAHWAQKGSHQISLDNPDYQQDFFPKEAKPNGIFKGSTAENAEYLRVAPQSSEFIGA

mutEGFR (D770_N771insSVD), sequence (P00533 with tags, fused parts or gaps INS767SVD limits assumed): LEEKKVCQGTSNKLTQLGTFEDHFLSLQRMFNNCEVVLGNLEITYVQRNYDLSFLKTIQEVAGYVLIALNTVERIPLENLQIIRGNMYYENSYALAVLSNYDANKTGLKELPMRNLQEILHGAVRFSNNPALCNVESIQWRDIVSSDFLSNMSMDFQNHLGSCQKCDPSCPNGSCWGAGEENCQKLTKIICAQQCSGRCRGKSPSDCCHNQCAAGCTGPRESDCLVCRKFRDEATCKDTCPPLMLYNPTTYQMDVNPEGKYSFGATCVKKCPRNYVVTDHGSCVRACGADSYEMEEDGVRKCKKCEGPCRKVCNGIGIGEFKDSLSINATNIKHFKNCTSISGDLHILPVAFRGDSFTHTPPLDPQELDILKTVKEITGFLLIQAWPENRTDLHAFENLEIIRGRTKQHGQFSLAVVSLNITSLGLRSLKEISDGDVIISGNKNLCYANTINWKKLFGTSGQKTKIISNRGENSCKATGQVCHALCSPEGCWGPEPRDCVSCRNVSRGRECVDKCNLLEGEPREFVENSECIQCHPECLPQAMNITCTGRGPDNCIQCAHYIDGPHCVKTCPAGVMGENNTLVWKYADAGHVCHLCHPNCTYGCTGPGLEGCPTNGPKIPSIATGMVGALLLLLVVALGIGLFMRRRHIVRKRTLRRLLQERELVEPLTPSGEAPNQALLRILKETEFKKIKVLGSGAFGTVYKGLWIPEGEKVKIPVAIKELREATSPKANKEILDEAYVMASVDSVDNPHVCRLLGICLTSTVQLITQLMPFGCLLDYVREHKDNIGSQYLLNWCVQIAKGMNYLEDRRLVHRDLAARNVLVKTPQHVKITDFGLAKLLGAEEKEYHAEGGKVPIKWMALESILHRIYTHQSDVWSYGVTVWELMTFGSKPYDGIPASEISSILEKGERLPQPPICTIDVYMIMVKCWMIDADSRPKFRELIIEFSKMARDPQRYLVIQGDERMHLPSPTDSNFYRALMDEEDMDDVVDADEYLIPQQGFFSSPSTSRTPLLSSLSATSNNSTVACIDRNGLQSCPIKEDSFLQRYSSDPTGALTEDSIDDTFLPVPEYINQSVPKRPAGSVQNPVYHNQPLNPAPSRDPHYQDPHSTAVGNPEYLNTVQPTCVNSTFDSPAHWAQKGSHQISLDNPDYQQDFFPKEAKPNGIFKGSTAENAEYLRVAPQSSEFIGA

For `C=CS(=O)(=O)N(C)CCOc1cnccc1-c1[nH]c2cccnc2c1-c1cccc(Cl)c1` [Example 29, N-[2-({4-[3-(3-chlorophenyl)-1H-pyrrolo[3,2-b]pyridin-2-yl]pyridin-3-yl}oxy)ethyl]-N-methylethenesulfonamide], the IC50 in experiment [1] came out at 0.0524 µM; in experiment [2], 3.13 µM; in experiment [3] it was 0.000349 µM; in experiment [4] it was 0.000801 µM.

`C=CS(=O)(=O)N(C)CCOc1cnccc1-c1[nH]c2cccnc2c1-c1ccc2cc[nH]c2c1` [Example 30, N-[2-({4-[3-(1H-indol-6-yl)-1H-pyrrolo[3,2-b]pyridin-2-yl]pyridin-3-yl}oxy)ethyl]-N-methylethenesulfonamide]: the IC50 in experiment [1] came to 0.0622 µM; in experiment [2], 0.831 µM; in experiment [3] it was 0.000513 µM; in experiment [4], 0.00182 µM.

Consider `C=CC(=O)N(C)CCOc1cnccc1-c1[nH]c2cccnc2c1-c1cc(Cl)cc(Cl)c1` [Example 31, N-[2-({4-[3-(3,5-dichlorophenyl)-1H-pyrrolo[3,2-b]pyridin-2-yl]pyridin-3-yl}oxy)ethyl]-N-methylprop-2-enamide], for which the IC50 in experiment [1] worked out at 5.53 µM; in experiment [2] it was 9.98 µM; in experiment [3], 0.931 µM; in experiment [4], 0.391 µM.

For `C=CC(=O)N(CC)CCOc1cnccc1-c1[nH]c2cccnc2c1-c1ccccc1` [Example 32, N-ethyl-N-(2-{[4-(3-phenyl-1H-pyrrolo[3,2-b]pyridin-2-yl)pyridin-3-yl]oxy}ethyl)prop-2-enamide], the IC50 came to 0.364 µM in experiment [1], 9.65 µM in experiment [2], 0.0151 µM in experiment [3] and 0.0299 µM in experiment [4].

In the case of `C=CS(=O)(=O)N(CC)CCOc1cnccc1-c1[nH]c2cccnc2c1-c1ccccc1` [Example 33, N-ethyl-N-(2-{[4-(3-phenyl-1H-pyrrolo[3,2-b]pyridin-2-yl)pyridin-3-yl]oxy}ethyl)ethenesulfonamide], the IC50 turned out to be 0.0307 µM in experiment [1], 0.253 µM in experiment [2], 0.000357 µM in experiment [3] and 0.00192 µM in experiment [4].

For the molecule `C=CC(=O)N1CCC[C@H]1COc1cnccc1-c1[nH]c2cccnc2c1-c1ccccc1` [Example 34, 1-[(2S)-2-({[4-(3-phenyl-1H-pyrrolo[3,2-b]pyridin-2-yl)pyridin-3-yl]oxy}methyl)pyrrolidin-1-yl]prop-2-en-1-one], the IC50 in experiment [1] was 0.0169 µM; in experiment [2] it was 0.75 µM; in experiment [3], 0.000367 µM; in experiment [4], 0.00206 µM.

Consider `C=CC(=O)N1CCC[C@@H]1COc1cnccc1-c1[nH]c2cccnc2c1-c1ccccc1` [Example 35, 1-[(2R)-2-({[4-(3-phenyl-1H-pyrrolo[3,2-b]pyridin-2-yl)pyridin-3-yl]oxy}methyl)pyrrolidin-1-yl]prop-2-en-1-one], for which the IC50 in experiment [1] amounted to 1.4 µM; in experiment [2], 9.98 µM; in experiment [3], 0.0536 µM; in experiment [4], 0.349 µM.

For `C=CS(=O)(=O)N1CCC[C@H]1COc1cnccc1-c1[nH]c2cccnc2c1-c1ccccc1` [Example 36, 2-(3-{[(2S)-1-(ethenesulfonyl)pyrrolidin-2-yl]methoxy}pyridin-4-yl)-3-phenyl-1H-pyrrolo[3,2-b]pyridine], the IC50 in experiment [1] worked out at 0.00327 µM; in experiment [2], 0.0446 µM; in experiment [3], 0.000104 µM; in experiment [4], 0.000308 µM.

`CN(C)C/C=C/C(=O)N1CCC[C@H]1COc1cnccc1-c1[nH]c2cccnc2c1-c1ccccc1` [Example 37, (2E)-4-(dimethylamino)-1-[(2S)-2-({[4-(3-phenyl-1H-pyrrolo[3,2-b]pyridin-2-yl)pyridin-3-yl]oxy}methyl)pyrrolidin-1-yl]but-2-en-1-one]: the IC50 in experiment [1] was 0.229 µM; in experiment [2] it was 9.13 µM; in experiment [3], 0.0037 µM; in experiment [4] it was 0.0112 µM.

Turning to `C=CS(=O)(=O)N1CCC[C@H]1COc1cnccc1-c1[nH]c2cccnc2c1-c1cccc(C(F)(F)F)c1` [Example 38, 2-(3-{[(2S)-1-(ethenesulfonyl)pyrrolidin-2-yl]methoxy}pyridin-4-yl)-3-[3-(trifluoromethyl)phenyl]-1H-pyrrolo[3,2-b]pyridine], the IC50 in experiment [1] was 0.0201 µM; in experiment [2], 0.147 µM; in experiment [3], 0.000404 µM; in experiment [4], 0.00105 µM.

`C=CC(=O)N1CCC[C@H]1COc1cnccc1-c1[nH]c2cccnc2c1-c1cccc(C(F)(F)F)c1` [Example 39, 1-[(2S)-2-{[(4-{3-[3-(trifluoromethyl)phenyl]-1H-pyrrolo[3,2-b]pyridin-2-yl}pyridin-3-yl)oxy]methyl}pyrrolidin-1-yl]prop-2-en-1-one]: the IC50 in experiment [1] was 0.0914 µM; in experiment [2] it was 5.4 µM; in experiment [3] it was 0.00119 µM; in experiment [4], 0.00522 µM.

As for `C=CS(=O)(=O)N1CCC[C@H]1COc1cnccc1-c1[nH]c2cccnc2c1-c1cccc(Cl)c1` [Example 40, 3-(3-chlorophenyl)-2-(3-{[(2S)-1-(ethenesulfonyl)pyrrolidin-2-yl]methoxy}pyridin-4-yl)-1H-pyrrolo[3,2-b]pyridine], the IC50 in experiment [1] amounted to 0.00854 µM; in experiment [2] it was 0.0679 µM; in experiment [3], 0.000193 µM; in experiment [4], 0.00029 µM.

For the molecule `C=CC(=O)N1CCC[C@H]1COc1cnccc1-c1[nH]c2cccnc2c1-c1cccc(Cl)c1` [Example 41, 1-{(2S)-2-[({4-[3-(3-chlorophenyl)-1H-pyrrolo[3,2-b]pyridin-2-yl]pyridin-3-yl}oxy)methyl]pyrrolidin-1-yl}prop-2-en-1-one], the IC50 in experiment [1] turned out to be 0.0259 µM; in experiment [2], 0.782 µM; in experiment [3], 0.000319 µM; in experiment [4] it was 0.000988 µM.

Regarding `C=CC(=O)N1CCC[C@H]1COc1cnccc1-c1[nH]c2cccnc2c1-c1cc(Cl)ccc1F` [Example 42, 1-{(2S)-2-[({4-[3-(5-chloro-2-fluorophenyl)-1H-pyrrolo[3,2-b]pyridin-2-yl]pyridin-3-yl}oxy)methyl]pyrrolidin-1-yl}prop-2-en-1-one], the IC50 in experiment [1] came to 0.0447 µM; in experiment [2] it was 3.64 µM; in experiment [3], 0.00111 µM; in experiment [4] it was 0.00284 µM.

Turning to `C=CS(=O)(=O)N1C[C@@H](C)C[C@H]1COc1cnccc1-c1[nH]c2cccnc2c1-c1ccccc1` [Example 111, 2-(3-{[(2S,4S)-1-(ethenesulfonyl)-4-methylpyrrolidin-2-yl]methoxy}pyridin-4-yl)-3-phenyl-1H-pyrrolo[3,2-b]pyridine], the IC50 is 0.0109 µM in experiment [1], 0.0777 µM in experiment [2], 0.000135 µM in experiment [3] and 0.00033 µM in experiment [4].
